According to patent publication US11533912B2, “Use of cinnamate compounds in the control of fungal diseases of crops” (Institute of Plant Protection, Gansu Academy of …, priority 2019, dated 2022):
Where two headings read alike, the source gives them in different places.

Assays:
[1] = test system: Phytophthora infestans; format: cell-based; conditions: Phytophthora infestans (second line), 1 mg/mL
[2] = test system: Phytophthora capsici; experiment: Ex vivo mycelial growth, growth rate method; format: cell-based
[3] = test system: Sclerotinia sclerotiorum; experiment: Ex vivo mycelial growth, growth rate method; format: cell-based; conditions: 1 mg/mL
[4] = test system: Mycosphaerlla melonis; experiment: Ex vivo mycelial growth, growth rate method; format: cell-based; conditions: 1 mg/mL
[5] = test system: F. graminearum; experiment: microbe, parasite or virus in culture; format: cell-based
[6] = test system: C. gossypii; experiment: Ex vivo mycelial growth, growth rate method; format: cell-based; conditions: 1 mg/mL
[7] = test system: Phytophthora infestans; format: cell-based; conditions: Phytophthora infestans (first line), 1 mg/mL
[8] = test system: cucumber; experiment: Crop safety (phytotoxicity) in the cucumber field test; conditions: at the test doses (triazole control agents: 1500 fold liquid)
[9] = test system: Exserohilum turcicum; experiment: Ex vivo mycelial growth, growth rate method; format: cell-based; conditions: 1 mg/mL
[10] = test system: zucchini; conditions: in vivo
Text: The first application was started on August 26th, at the early onset of powdery mildew (the average disease index is 10.07). The instrument for application was Agrolex HD 400 Model hand operating knapsack sprayer, which employed a cone nozzle. Each agent was formulated into the desired concentrations according to the usage amount of the control clear water. Both sides of the leaves were sprayed evenly so that the leaves were wetted by the liquor without loss. […] Thereafter, applications were conducted every 7 days consecutively for 4 times. 10 days after the last application, the number of disease leaves at each grade of powdery mildew was investigated for the whole plant following the grading standard of 9 grades, to calculate the disease index and the control effect.

[11] = test system: Pyricularia grisea; experiment: microbe, parasite or virus in culture; format: cell-based
[12] = test system: F. oxysporum f. sp. vasinfectum; experiment: Ex vivo mycelial growth, growth rate method; format: cell-based; conditions: 1 mg/mL
[13] = test system: Botrytis cinerea; experiment: Ex vivo mycelial growth, growth rate method; format: cell-based; conditions: 1 mg/mL
[14] = test system: Rhizoctonia solani; experiment: Ex vivo mycelial growth, growth rate method; format: cell-based; conditions: 1 mg/mL
[15] = test system: Valsa mali; experiment: Ex vivo mycelial growth, growth rate method; format: cell-based; conditions: 1 mg/mL
[16] = test system: E. cichoracearum; experiment: Field efficiency test on cucumber powdery mildew; conditions: 0.50 mg/mL (active ingredients)
Experimental: The first application was started on Jun. 15, 2018, and E. cichoracearum was inoculated on June 17th (the diseased leaves were harvested from the solar greenhouse near the military airfield at Xiaguanying town, Yuzhong County, moisturized in the greenhouse for 2 days, then shredded, and filtered over a gauze, the filtrate was sprayed onto both sides of the cucumber leaves with the cone nozzle of an electric sprayer for inoculation). The second, third and fourth applications were conducted on June 23rd, July 2nd, and July 9th respectively, the water consumptions of which were adjusted promptly according to the amount of water desired for spraying evenly onto both sides of the control leaves. 10 days after the fourth application, the number of disease leaves at each grade of powdery mildew was investigated following the grading standard of 9 grades, to calculate the disease index and the control effect.

[17] = test system: zucchini powdery mildew; experiment: Field efficiency test on zucchini powdery mildew; format: in vivo; conditions: 0.50 mg/mL
[18] = test system: Thanatephorus cucumeris; experiment: Ex vivo mycelial growth, growth rate method; format: cell-based; conditions: 1 mg/mL
[19] = test system: E. polygoni; experiment: In-vivo control of marrow bean powdery mildew in a greenhouse
Experimental: (2) In-Vivo Determination Method • Marrow bean (Variety: Thailand Jiadouwang) were cultured in pots in a greenhouse, and inoculated with E. polygoni at the stage of 4 leaves. […] Both sides of the leaves were sprayed evenly with a small hand-held sprayer so that the leaves were wetted by the liquor without loss. Applications were conducted every 7 days consecutively for 4 times. 10 days after the fourth application, the number of disease leaves at each grade of powdery mildew was investigated for the whole plant following the grading standard of 9 grades, to calculate the disease index and the control effect.

[20] = test system: Botryosphaeria berengeriana; experiment: Ex vivo mycelial growth, growth rate method (line 'Botryosphaeria berengeriana', r34); format: cell-based; conditions: Botryosphaeria berengeriana (second line), 1 mg/mL
[21] = test system: Gaeumannomyces graminis var. graminis and G. graminis var. tritici; experiment: Ex vivo mycelial growth, growth rate method; format: cell-based; conditions: 1 mg/mL
[22] = test system: damping-off (P. aphanidermatum, P capsici); experiment: In-vivo control of tomato damping-off in a greenhouse (sick soil); conditions: 0.80 mg/mL, 200 mL liquor per pot
Experimental: (§1) (2) In-Vivo Determination Method • Sick soil of damping-off (P. aphanidermatum, P capsici) was collected from the fields of tomatoes, eggplants and peppers in solar greenhouse, and mixed evenly in equal proportion. Tomatoes (Variety: Song Tian Fen Yang Yang, 100 grains), eggplants (Variety: Lanza No. 2 F1 long eggplant, 100 grains), pepper (Longjiao 2 F1, 100 grains) were seeded quantitatively with the sick soil in pots (diameter: 15 cm) in a greenhouse, additionally with sterile vermiculite as the control (each 100 grains for determining the germination rate). […] The computational formula is as below: Mortality of Seedlings (%)=[number of survival seedlings in the seeded grains−number of seeded grains×(100%−germination rate)]/number of seeded grains×100; Control Effect (%)=(mortality of control seedlings−mortality of treated seedlings)/mortality of control seedlings×100.

[23] = test system: Pythium aphanidermatum; experiment: Ex vivo mycelial growth, growth rate method; format: cell-based; conditions: 1 mg/mL
[24] = test system: Erysiphe cucurbitacearum or Sphaerotheca cucurbitae; experiment: In-vivo control of zucchini powdery mildew in a greenhouse
Experimental: (2) In-Vivo Determination Method • Zucchini (Variety: Wuwei Xianglin extra-early 1st generation) were cultured in pots in a greenhouse, and inoculated with Erysiphe cucurbitacearum or Sphaerotheca cucurbitae at the stage of 3 to 4 leaves. […] Both sides of the leaves were sprayed evenly with a small hand-held sprayer so that the leaves were wetted by the liquor without loss. Applications were conducted every 7 days consecutively for 4 times. 10 days after the fourth application, the number of disease leaves at each grade of powdery mildew was investigated for the whole plant following the grading standard of 9 grades, to calculate the disease index and the control effect. The computational formula is as below: Disease index=[(Number of disease leaves at each grade×Corresponding grade value)/(Total number of investigated leaves×9)]×100; Control effect=(Disease index of the clear water control−Treated disease index)/Disease index of the clear water control×100.

[25] = test system: damping-off (P. aphanidermatum, P capsici); experiment: In-vivo control of pepper damping-off in a greenhouse (sick soil); conditions: 0.80 mg/mL, 200 mL liquor per pot
Experimental: as §1

[26] = test system: F. oxysporum f. sp. lini; experiment: Ex vivo mycelial growth, growth rate method; format: cell-based; conditions: 1 mg/mL
[27] = test system: Colletotrichum capsici; experiment: Ex vivo mycelial growth, growth rate method; format: cell-based; conditions: 1 mg/mL
[28] = test system: F. verticillioide; experiment: Ex vivo mycelial growth, growth rate method; format: cell-based; conditions: 1 mg/mL
[29] = test system: plant pathogenic fungi; experiment: organism not typed; format: cell-based; conditions: read-out: inhibition rate on mycelial growth, range over 9 fungi
[30] = test system: Fusarium graminearum; experiment: microbe, parasite or virus in culture; format: cell-based
[31] = test system: Coniella diplodiella; experiment: Ex vivo mycelial growth, growth rate method; format: cell-based; conditions: 1 mg/mL
[32] = test system: Blumeria graminis f. sp. trilici; experiment: In-vivo control of wheat powdery mildew in a greenhouse; parameters: species or system Blumeria graminis f. sp. trilici on winter wheat
[33] = test system: Botryosphaeriana berengeriana; experiment: Ex vivo mycelial growth, growth rate method (line 'Botryosphaeriana berengeriana', r23); format: cell-based; conditions: Botryosphaeriana berengeriana (first line), 1 mg/mL
[34] = mycelial growth, Phytophthora capsici, 1 mg/mL
[35] = F. graminearum (second line), 1 mg/mL
[36] = Fusarium graminearum, read-out: Inhibition Rate
[37] = Fusarium oxysporum, mycelial growth

SMILES: COC(=O)C=Cc1ccc(OC)c(OC)c1 [Control Compound A, methyl 3,4-dimethoxy cinnamate, reference compound]
- Average Diameter of the Colony [1]: 0.27 cm
- Inhibition Rate ([1]; mycelial growth): 96.58%
- Average Diameter of the Colony ([2]; Phytophthora capsici, 1 mg/mL): 1.97 cm
- Inhibition Rate [2, 34]: 75.06%
- Average Diameter of the Colony [3]: 0.00 cm
- Inhibition Rate ([3]; mycelial growth): 100%
- Average Diameter of the Colony [4]: 0.67 cm
- Inhibition Rate ([4]; mycelial growth): 91.52%
- Average Diameter of the Colony [5, 35]: 4.90 cm
- Inhibition Rate ([5]; mycelial growth, F. graminearum (second line), 1 mg/mL): 37.98%
- Average Diameter of the Colony [6]: 3.83 cm
- Inhibition Rate ([6]; mycelial growth): 51.52%
- Average Diameter of the Colony [7]: 2.77 cm
- Inhibition Rate ([7]; mycelial growth): 64.94%
- phytotoxicity / safety for cucumber [8]: safe for zucchini and cucumber
- Average Diameter of the Colony [9]: 1.37 cm
- Inhibition Rate ([9]; mycelial growth): 82.66%
- safety for zucchini [10]: safe for zucchini and cucumber
- Average Diameter of the Colony ([11]; 1 mg/mL): 3.83 cm
- Inhibition Rate ([11]; mycelial growth, 1 mg/mL): 51.52%
- Average Diameter of the Colony [12]: 2.43 cm
- Inhibition Rate ([12]; mycelial growth): 69.24%
- Average Diameter of the Colony [13]: 2.27 cm
- Inhibition Rate ([13]; mycelial growth): 71.27%
- Average Diameter of the Colony [14]: 0.67 cm
- Inhibition Rate ([14]; mycelial growth): 91.52%
- Average Diameter of the Colony [15]: 0.00 cm
- Inhibition Rate ([15]; mycelial growth): 100%

SMILES: CCOC(=O)/C=C/c1ccc(OC)c(F)c1 [ethyl 3-(3′-fluoro-4′-methoxyphenyl) acrylate]
- control effect on cucumber powdery mildew [16]: 78.42%
- Average Diameter of the Colony [1]: 0.00 cm
- Average Diameter of the Colony ([2]; Phytophthora capsici, 1 mg/mL): 1.26 cm
- inhibition at 1000 µg/mL [2, 34]: 76.2%
- antifungal activity on Phytophthora capsici compared with hymexazol ([2]; supplementary determination results): superior to that of the control agent, hymexazol
- Control Effect [17]: 85.82%
- Average Diameter of the Colony [18]: 2.05 cm
- inhibition at 1000 µg/mL ([18]; mycelial growth): 76.2%
- Average Diameter of the Colony [3]: 2.58 cm
- inhibition at 1000 µg/mL ([3]; mycelial growth): 70%
- Average Diameter of the Colony [4]: 0.37 cm
- inhibition at 1000 µg/mL ([4]; mycelial growth): 95.7%
- Average Diameter of the Colony [5, 35]: 2.77 cm
- inhibition at 1000 µg/mL [5, 36]: 67.8%
- Average Diameter of the Colony [6]: 0.42 cm
- inhibition at 1000 µg/mL ([6]; Colletotrichum gossypii, mycelial growth): 92.2%
- Control Effect ([19]; 0.10 mg/mL): 77.26%
- Control Effect ([19]; 0.143 mg/mL): 91.16%
- Control Effect ([19]; 0.20 mg/mL): 94.51%
- Average Diameter of the Colony [20]: 1.72 cm
- inhibition at 1000 µg/mL ([20]; mycelial growth): 74.7%
- Average Diameter of the Colony [7]: 1.40 cm
- Average Diameter of the Colony [9]: 0.10 cm
- inhibition at 1000 µg/mL ([9]; mycelial growth): 98.4%
- Average Diameter of the Colony [21]: 2.29 cm
- inhibition at 1000 µg/mL ([21]; mycelial growth): 40%
- control effect on tomato damping-off [22]: 51.02%
- Average Diameter of the Colony [23]: 2.60 cm
- inhibition at 1000 µg/mL ([23]; mycelial growth): 61.2%
- Control Effect ([24]; 0.20 mg/mL): 52.71%
- Control Effect ([24]; 0.333 mg/mL): 95.60%
- Control Effect ([24]; 0.50 mg/mL): 97.11%
- Average Diameter of the Colony ([11]; 1 mg/mL): 7.70 cm
- inhibition at 1000 µg/mL ([11]; read-out: Inhibition Rate): 14.4%
- control effect on pepper damping-off [25]: 56.47%
- Average Diameter of the Colony [26]: 7.20 cm
- inhibition at 1000 µg/mL [26, 37]: 20%
- Average Diameter of the Colony [12]: 4.45 cm
- inhibition at 1000 µg/mL [12, 37]: 38.5%
- Average Diameter of the Colony [27]: 0.11 cm
- inhibition at 1000 µg/mL ([27]; Colletotrichum truncatum, mycelial growth): 98.4%
- Average Diameter of the Colony [28]: 2.34 cm
- inhibition at 1000 µg/mL ([28]; mycelial growth): 30.8%
- inhibition at 1000 µg/mL [29]: 82 to 100%
- Average Diameter of the Colony ([30]; Fusarium graminearum (first line), 1 mg/mL): 3.26 cm
- inhibition at 1000 µg/mL [30, 36]: 39.1%
- Average Diameter of the Colony [31]: 0.00 cm
- inhibition at 1000 µg/mL ([31]; mycelial growth): 100%
- Control Effect ([32]; 0.143 mg/mL): 64.75%
- Control Effect ([32]; 0.20 mg/mL): 67.60%
- Average Diameter of the Colony [33]: 1.19 cm
- inhibition at 1000 µg/mL ([33]; mycelial growth): 79.1%
- Average Diameter of the Colony [13]: 1.35 cm
- inhibition at 1000 µg/mL ([13]; mycelial growth): 82%
- Average Diameter of the Colony [14]: 0.00 cm
- inhibition at 1000 µg/mL ([14]; mycelial growth): 100%
- Average Diameter of the Colony [15]: 0.85 cm
- inhibition at 1000 µg/mL ([15]; Cytospora mali, mycelial growth): 89.2%
